According to ChEMBL document CHEMBL2074209, “Coinduction of MDR-1 multidrug-resistance and cytochrome P-450 genes in rat liver by xenobiotics” (J Natl Cancer Inst, 1988):

The compounds below were run against Multidrug resistance protein 1a (Rattus norvegicus) (UniProt Q6PSM0) (assay: TP_TRANSPORTER: Northern blot in vivo Fischer male rat).
Type: functional, organism-based

Chain of Multidrug resistance protein 1a (Rattus norvegicus) (Q6PSM0 as listed by the source): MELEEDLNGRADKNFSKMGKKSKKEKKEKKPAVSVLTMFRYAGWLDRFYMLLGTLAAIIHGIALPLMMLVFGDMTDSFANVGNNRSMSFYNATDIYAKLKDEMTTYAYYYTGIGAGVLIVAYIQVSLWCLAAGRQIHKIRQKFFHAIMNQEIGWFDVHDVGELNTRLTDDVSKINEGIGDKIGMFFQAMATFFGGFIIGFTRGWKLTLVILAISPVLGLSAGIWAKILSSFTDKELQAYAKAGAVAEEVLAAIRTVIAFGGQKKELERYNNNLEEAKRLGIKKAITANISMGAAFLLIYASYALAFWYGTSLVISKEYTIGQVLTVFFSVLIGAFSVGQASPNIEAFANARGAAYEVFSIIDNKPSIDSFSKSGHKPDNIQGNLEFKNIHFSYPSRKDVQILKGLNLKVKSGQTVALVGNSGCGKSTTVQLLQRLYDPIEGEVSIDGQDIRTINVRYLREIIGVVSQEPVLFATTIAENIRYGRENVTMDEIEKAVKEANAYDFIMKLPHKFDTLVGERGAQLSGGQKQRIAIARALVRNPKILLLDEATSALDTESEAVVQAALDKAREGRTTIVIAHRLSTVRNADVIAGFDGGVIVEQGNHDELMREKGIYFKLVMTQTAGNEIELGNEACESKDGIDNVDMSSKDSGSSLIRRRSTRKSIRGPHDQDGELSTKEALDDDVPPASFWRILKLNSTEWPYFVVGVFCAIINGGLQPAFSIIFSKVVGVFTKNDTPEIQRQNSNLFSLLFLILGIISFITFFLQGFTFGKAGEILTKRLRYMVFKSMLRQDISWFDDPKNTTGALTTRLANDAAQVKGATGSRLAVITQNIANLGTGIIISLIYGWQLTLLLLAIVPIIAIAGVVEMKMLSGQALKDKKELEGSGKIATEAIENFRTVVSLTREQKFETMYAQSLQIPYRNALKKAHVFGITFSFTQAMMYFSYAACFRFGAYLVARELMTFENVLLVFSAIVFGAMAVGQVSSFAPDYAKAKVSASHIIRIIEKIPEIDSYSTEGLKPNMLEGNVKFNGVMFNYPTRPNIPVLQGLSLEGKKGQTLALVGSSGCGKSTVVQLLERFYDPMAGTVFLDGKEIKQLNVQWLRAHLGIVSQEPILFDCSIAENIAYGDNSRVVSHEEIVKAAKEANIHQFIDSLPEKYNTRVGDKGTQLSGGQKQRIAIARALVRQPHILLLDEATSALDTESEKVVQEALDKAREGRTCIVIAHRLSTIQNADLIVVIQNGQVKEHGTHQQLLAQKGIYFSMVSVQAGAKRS

| SMILES | Activity |
| --- | --- |
| Clc1cc2c(cc1Cl)Oc1cc(Cl)c(Cl)cc1O2 | inducer [+] |
| CC(=O)N(O)c1ccc2c(c1)Cc1ccccc1-2 | inducer [+] |
| c1ccc2c(c1)Nc1ccccc1S2 | inducer [+] |
| C/C=C/c1ccc2c(c1)OCO2 | inducer [+] |
| COc1cc2c(c3oc(=O)c4c(c13)CCC4=O)[C@@H]1C=CO[C@@H]1O2 | inducer [+] |
